# According to US10071965B2, “Pyridone FabI inhibitors and uses thereof” (priority 2015, dated 2018):
# Values joined by “and” are separate entries in the source; they are usually repeats but may differ in a detail not shown here. Equal entries are not always repeated. Where two headings read alike, the source gives them in different places.
# Assays:
# [1] = test system: S. aureus RN4220; assay: MIC microbroth dilution, S. aureus RN4220; type: cell-based, Staphylococcus aureus; conditions: for MIC: Staphylococcus aureus; for Staphylococcus aureus MIC (μg/mL) RN4220: 2-pyridones table
# [2] = biological target: T1, saFabI (Staphylococcus aureus (strain MRSA252), UniProt Q6GI75); assay: saFabI inhibition kinetics; type: biochemical
# [3] = biological target: M. tuberculosis enoyl-ACP reductase InhA (Mycobacterium tuberculosis (strain ATCC 25618 / H37Rv), UniProt P9WGR1); assay: InhA inhibition kinetics; type: biochemical
# [4] = test system: M. tuberculosis H37Rv; assay: MIC microbroth dilution, M. tuberculosis H37Rv; type: cell-based; conditions: Mycobacterium tuberculosis, H37RV, read-out: Mycobacterium tuberculosis MIC (μg/mL) H37Rv
# [5] = test system: E. coli MG1655 ΔacrAB; assay: microbe, parasite or virus in culture; type: cell-based, Escherichia coli; conditions: for MIC: Escherichia coli, MG1655
# [6] = biological target: T1, saFabI; assay: Jump dilution assay with saFabI; type: biochemical; conditions: preincubation with NADP+ and saFabI, jump dilution; read-out: residence time tR
# [7] = biological target: ecFabI (Escherichia coli (strain K12), UniProt P0AEK4); assay: ecFabI inhibition kinetics; type: biochemical
# [8] = test system: Bt38; assay: microbe, parasite or virus in culture; type: cell-based; conditions: Burkholderia pseudomallei, read-out: Burkholderia pseudomallei MIC (μg/mL) Bt38
# [9] = test system: F. tularensis LVS; assay: microbe, parasite or virus in culture; type: cell-based; conditions: Francisella tularensis, read-out: Francisella tularensis MIC (μg/mL) LVS, 2-pyridones table
# [10] = biological target: bpFabI (Burkholderia pseudomallei, UniProt A0A0H3HP34); assay: biochemical
# [11] = biological target: Francisella tularensis FabI (Francisella tularensis subsp. tularensis (strain SCHU S4 / Schu 4), UniProt Q5NGQ3); assay: biochemical
# [12] = test system: MRSA strain BAA1762; assay: Neutropenic mouse thigh infection model; type: in vivo, Swiss Webster mice
# [13] = biological target: bpFabV (Burkholderia pseudomallei, UniProt Q63TE9); type: biochemical; conditions: read-out: Burkholderia pseudomallei IC50 (μM), bpFabV
# [14] = biological target: YpFabV (Yersinia pestis, UniProt Q8Z9U1); assay: biochemical
# [15] = in vivo; conditions: female, ICR, mouse, ip, 200 mg/kg
# [16] = RN4220, 2-pyridones table, read-out: Staphylococcus aureus MIC (μg/mL) RN4220
# [17] = [S]/KS = 0.19, binds E-NAD+ binary complex, single point progress curve analysis, read-out: Ki^app
# [18] = binds E-NAD+ binary complex, single point progress curve analysis, read-out: Ki
# [19] = RN4220, S. aureus RN4220, read-out: MIC
# [20] = Ki^app (nM), saFabI, [S]/KS = 2
# [21] = Staphylococcus aureus Ki (in brackets under IC50), 2-pyridones table
structure (smiles),measurement,setting,value
CCCCCCc1ccn(Cc2ccc(C(C)=O)cc2)c(=O)c1 [PT427],MIC,[1]; [16],> 128 µg/mL
same,IC50,[2],394 ± 40 nM
CCCCCCc1cc(=O)c(Oc2cccnc2N)cn1C [PT169],IC50,[3],379 ± 41 nM
same,MIC,[4]; 4-pyridones table,12.5 µg/mL
Oc1cc(Cl)ccc1Oc1ccccc1 [PT52],MIC,[5],0.1 µM
same,residence time,[6],30 min
same,Ki,[7]; [17],26.9 nM
same,Ki,[7]; [18],0.1 nM
CCCCCCc1ccn(Cc2ccccc2Cl)c(=O)c1 [PT172],Staphylococcus aureus MIC (μg/mL) RN4220,[1],8 µg/mL
same,MIC,[1]; [16],5 µg/mL
same,MIC,[1]; [19],26.3 µM
same,MIC,[8],250 µg/mL
same,MIC,[9],4.04 µg/mL
same,IC50,[3],240 ± 44 nM
same,MIC,[4]; 2-pyridones table,25 µg/mL
same,IC50,[10],260 ± 9.3 nM
same,IC50,[11],61 ± 13 nM
same,IC50,[2],379 ± 88 nM
same,Ki,"[2]; Ki (nM), saFabI",11 ± 0.4 nM
same,Ki,[2]; [20],40.7 ± 1.3 nM
same,Ki,[2]; [21],11 ± 0.4 nM
"Cc1ccc(Oc2ccccc2)c(O)c1 [PT53, reference compound]",MIC,[1]; [19],20 µM
CCCCCCc1cc(=O)c(Oc2ccccc2C#N)cn1C [PT159],MIC,"[1]; RN4220, 4-pyridones table, read-out: Staphylococcus aureus MIC (μg/mL) RN4220",4 µg/mL
same,MIC,[1]; [19],12.9 µM
same,IC50,[3],629 nM
same,MIC,[4]; 4-pyridones table,50 µg/mL
same,Ki,"[2]; Ki (nM), saFabI",11 ± 0.9 nM
same,Ki,[2]; [20],41 ± 3.4 nM
same,Ki,"[2]; Staphylococcus aureus Ki (nM), 4-pyridones table",11 nM
CCCCCCc1ccn(Cc2cccc(N)c2C)c(=O)c1 [PT173],MIC,[1]; [19],6.7 µM
same,MIC,[8],36.3 µg/mL
same,Escherichia coli MIC (μg/mL) MG1655 ΔacrAB,[5]; 2-pyridones table,>425 µg/mL
same,MIC,[5],> 425 µM
same,MIC,[9],3.57 µg/mL
same,IC50,[3],> 3200 nM
same,MIC,[4]; 2-pyridones table,50 µg/mL
same,IC50,[10],460 ± 10 nM
same,IC50,[11],83 ± 15 nM
same,Ki,"[7]; Ki^app (nM), [S]/KS = 0.19",246 ± 10.1 nM
same,IC50,[2],68 ± 14 nM
same,Ki,"[2]; Ki (nM), saFabI",2 ± 0.4 nM
same,Ki,"[2]; Ki, saFabI",1.97 nM
same,Ki,[2]; [20],7.3 ± 1.5 nM
same,Ki,[2]; [21],2 ± 0.4 nM
CCCCCCc1ccn(Cc2ccc(Cl)cc2)c(=O)c1 [PT426],MIC,[1]; [16],~32 µg/mL
same,IC50,[2],185 ± 18 nM
CCCCCCc1ccc(Oc2ccccc2C)c(=O)[nH]1 [PT192],Staphylococcus aureus MIC (μg/mL) RN4220,[1],No
same,MIC,[8],8.35 µg/mL
same,MIC,[9],9.2 µg/mL
CCCCCCc1ccc(Oc2ccccc2)c(=O)[nH]1 [PT191],"Mycobacterium tuberculosis enzyme, inhibition","[3]; [I] = 2 μM, [E] = 100 nM",10%
same,IC50,[10],> 3000 nM
same,IC50,[11],> 10000 nM
same,IC50,[2],> 2000 nM
same,Ki,"[2]; Ki (nM), saFabI",196 ± 22.2 nM
same,Ki,[2]; [20],729 ± 82.4 nM
same,Ki,[2]; [21],196 ± 22.2 nM
Cn1cc(Oc2ccc([N+](=O)[O-])cc2)c(=O)cc1CCl [PT151],"Mycobacterium tuberculosis enzyme, inhibition at 1 μM","[3]; at 1 μM, [E] = 50 nM",No
CCCCCCc1cc(=O)c(Oc2ccccn2)cn1C [PT168],IC50,[3],1780 ± 315 nM
same,MIC,[4]; 4-pyridones table,50 µg/mL
CCCCCCc1ccn(Cc2cccc([N+](=O)[O-])c2C)c(=O)c1 [PT174],MIC,[1]; [16],50 µg/mL
same,MIC,[8],250 µg/mL
same,MIC,[9],2.12 µg/mL
same,IC50,[11],85 ± 11 nM
same,IC50,[2],248 ± 20 nM
Cc1onc(-c2ccccc2)c1C(=O)N[C@@H]1C(=O)N2[C@@H]1SC(C)(C)[C@@H]2C(=O)O [oxacillin],in vivo antibacterial efficacy,"[12]; MRSA BAA1762, neutropenic mouse thigh, FIG. 8",no in vivo antibacterial efficacy
CCCCCCc1cc(=O)c(Oc2ccc(N)cc2)cn1C [PT157],IC50,[13],1 µM and 0.87 µM
same,IC50,[3],424 nM
same,IC50,[14],130 nM
same,MIC,[4]; 4-pyridones table,50 µg/mL
CCCCCCc1ccn(Cc2ccccc2)c(=O)c1 [PT179],MIC,[1]; [16],32 µg/mL
same,MIC,[1]; [19],119 µM
same,IC50,[2],192 ± 30 nM
same,Ki,"[2]; Ki (nM), saFabI",19 ± 2.7 nM
same,Ki,[2]; [20],70.4 ± 9.8 nM
same,Ki,[2]; [21],19 ± 2.7 nM
CCCCCCc1cc(=O)c(Oc2cccnc2C#N)cn1C [PT167],IC50,[3],979 ± 152 nM
same,MIC,[4]; 4-pyridones table,100 µg/mL
CCCCCCc1ccn(Cc2cccc(F)c2)c(=O)c1 [PT421],MIC,[1]; [16],2 µg/mL
same,IC50,[2],297 ± 64 nM
CCCCCCc1ccn(Cc2ccccc2C#N)c(=O)c1 [PT420],MIC,[1]; [16],32 µg/mL
same,MIC,[1]; [19],109 µM
same,MIC,[8],44.4 µg/mL
same,MIC,[9],10.2 µg/mL
same,IC50,[11],727 ± 84 nM
same,IC50,[2],746 ± 165 nM
same,Ki,"[2]; Ki (nM), saFabI",29.6 ± 9.5 nM
same,Ki,[2]; [20],110 ± 1.7 nM
same,Ki,[2]; [21],29.6 ± 0.5 nM
CCCCCCc1ccn(Cc2ccc(F)cc2)c(=O)c1 [PT422],MIC,[1]; [16],1 µg/mL
same,IC50,[2],222 ± 22 nM
Cc1ccn(Cc2ccccc2Cl)c(=O)c1 [PT170],MIC,[1]; [16],> 500 µg/mL
same,MIC,[1]; [19],> 500 µM
same,MIC,[9],50 µg/mL
same,IC50,[3],> 1700 nM
same,MIC,[4]; 2-pyridones table,> 50 µg/mL
same,IC50,[10],> 1000 nM
same,IC50,[11],202 ± 17 nM
same,IC50,[2],> 1000 nM
same,Ki,"[2]; Ki (nM), saFabI",229 ± 5.2 nM
same,Ki,[2]; [20],849 ± 19.3 nM
same,Ki,[2]; [21],229 ± 5.2 nM
"CCCCCCc1ccc(Oc2ccccc2)c(O)c1 [PT04, 5-hexyl-2-phenoxyphenol, reference compound]",MIC,[5],14.8 µM
same,decrease of bacterial burden in the infected thigh,"[12]; 100 mg/kg dose, MRSA BAA1762, neutropenic mouse",0.9 log cfu/g tissue
same,AUC(0-t),[15],11800 ng·h/mL
same,Cmax,[15],5100 ng/mL
same,Tmax,[15],1 h
same,half-life,[15],4.5 h
same,Ki,[7]; [17],32.2 nM
same,Ki,[7]; [18],0.2 nM
Oc1cc(F)ccc1Oc1ccccc1 [PT55],MIC,[5],1.2 µM
same,Ki,[7]; [17],92.6 nM
same,Ki,[7]; [18],1.1 nM
CCCCCCc1ccn(Cc2ccccc2F)c(=O)c1 [PT423],MIC,[1]; [16],16 µg/mL
same,IC50,[2],165 ± 22 nM
CCCCCCc1ccn(Cc2ccccc2C)c(=O)c1 [PT171],MIC,[1]; [16],5 µg/mL
same,MIC,[8],154 µg/mL
same,MIC,[9],3.65 µg/mL
same,IC50,[3],130 ± 21 nM
same,MIC,[4]; 2-pyridones table,25 µg/mL
same,IC50,[10],~400 nM
same,IC50,[11],83 ± 32 nM
same,Ki,"[7]; Ki^app (nM), [S]/KS = 0.19",116 ± 4.6 nM
same,IC50,[2],150 ± 22 nM
same,Ki,"[2]; Ki (nM), saFabI",11.9 ± 1.8 nM
same,Ki,[2]; [20],44.3 ± 6.6 nM
same,Ki,[2]; [21],11.9 ± 1.8 nM
CCCCCCc1ccn(Cc2ccc([N+](=O)[O-])cc2)c(=O)c1 [PT424],Ki,[14],11000 nM
same,IC50,[2],1500 ± 200 nM
CCCCCCc1ccn(Cc2cccnc2F)c(=O)c1 [PT175],MIC,[1]; [16],50 µg/mL
same,MIC,[8],78.3 µg/mL
same,MIC,[9],14 µg/mL
same,IC50,[3],> 4000 nM
same,MIC,[4]; 2-pyridones table,50 µg/mL
same,IC50,[10],> 1000 nM
same,IC50,[2],> 1000 nM
CCCCCCc1ccn(Cc2ccc(N)cc2)c(=O)c1 [PT425],MIC,[1]; [16],~32 µg/mL
same,IC50,[2],380 ± 20 nM
"Oc1ccccc1Oc1ccccc1 [PT51, reference compound]",MIC,[1]; [19],687 µM
CCCCCCc1cc(=O)c(Oc2cccnc2F)cn1C [PT190],IC50,[3],641 ± 55 nM
same,MIC,[4]; 4-pyridones table,25 µg/mL
Cc1cc([N+](=O)[O-])ccc1Oc1cn(C)c(CCl)cc1=O [PT152],IC50,[3],2250 nM
same,MIC,[4]; 4-pyridones table,12.5 µg/mL
